Data: patent US20170226139A1, “CRYSTALLINE SALTS OF (Z)-O-OCTADEC-9-EN-1-YL O,O-DIHYDROGEN PHOSPHOROTHIOATE” (priority 2013, published 2017)
Entries after “also recorded” stand apart in the source; their conditions may differ. Read-outs that look alike come from different tables or passages of the source.

Legend:
[1] = tested on: Cultured human peripheral lymphocytes cells; assay type: cell-based; details: for Aberrant Cells Mean % −g: excluding gaps only; for Aberrant Cells Mean % +g: plus cells with gaps only
Procedure: Cultured human peripheral lymphocytes cells were incubated in vitro with Rx100.Lysine for 3 hours with and without S9 mix and for 24 hours without S9 mix. For Rx100.Lysine, concentrations ranging from 3.39 to 500 μg/mL were examined in both treatment conditions. Adjusting for purity, the concentration ranges were 3.06 to 452 μg/mL. […] This increase was just above the historical vehicle control range (0 to 2.0%) for 3 hour treatment without metabolic activation. Thus the response observed is a weak positive and of questionable biological significance cytotoxicity was present just below the acceptable limit of 50±5% for this assay.
Thus, Rx100.Lysine was considered negative for inducing chromosome aberrations, polyploidy and endoreduplication, in cultured human peripheral blood lymphocytes following a 3 hour treatment with and a 24 treatment without metabolic activation.

[2] = Short term (24 hour) slurry tests, XRPD of wet and dried solids; assay type: physicochemical; details: minimum 24 hours, 15 solvent systems, 25 and 50° C., wet and dried solids
Procedure: Second, short term slurry tests were performed. Rx100.L-Lysine salt was slurried for a minimum of 24 hours in 15 different solvent systems at two different temperatures (25 and 50° C.) in an attempt to provide information for crystallization experiments and design of polymorph screening experiments. A 48 position Chemglass reaction block was used for heating and stirring the slurries which were in 2 mL HPLC vials. After the due time, vials were centrifuged and the wet solids were used for X-ray diffraction. […]

[3] = Qualitative solubility of Rx100.L-Lysine salt in 13 additional solvents; assay type: physicochemical; details: for Observation (qualitative solubility): ~50 mg solid
From the text: The solubility of Rx100.L-Lysine salt was further tested in 13 additional solvents.

[4] = Solubility by incremental addition method in water or simulated formulation solvent
[5] = 28-day repeat-dose subcutaneous toxicity and toxicokinetics in rats; assay type: in vivo, Sprague Dawley rats; details: Sprague Dawley, rat, plasma, subcutaneous; day 27; lowest dose of 1.81 mg/kg/day
From the text: (§1) The remaining 5 rats per group in the control and high dose groups were then allowed a 14-day recovery period following treatment. Parameters evaluated included mortality (twice daily) clinical signs, food consumption (weekly), body weights (weekly), ophthalmoscopy (pre-dosing and prior to necropsy), hematology and clinical chemistry (Week 4), gross pathology, organ weights, and histopathology for all tissues in all dose groups. […] Ophthalmological examinations were unremarkable. […] Secondary changes included increased spleen weights and changes in other male reproductive organs. An increase in adrenal weights may have been related to a stress response. Macroscopic changes at necropsy included small testes (middle and high dose) and lesions apparent at the injection sites in some animals at all dose levels.
(§2) At recovery, only effects in male reproductive organs were evident at the highest dose, with skin lesions still evident in some animals at the highest dose. […] Cmax and AUC were generally higher at the end of the study compared to day 1. No gender differences were apparent.

Sprague Dawley rats = experiment: as above; assay type: in vivo
From the text: as §1, §2

[6] = 3-hour treatment with metabolic activation, 84.0 μg/mL
[7] = 3-hour treatment with metabolic activation, 120 μg/mL
[8] = 3-hour treatment with metabolic activation, 172 μg/mL
[9] = 3-hour treatment without metabolic activation, 120 μg/mL
[10] = 3-hour treatment without metabolic activation, 245 μg/mL
[11] = 3-hour treatment without metabolic activation, 350 μg/mL
[12] = 24-hour treatment without metabolic activation, 41.2 μg/mL
[13] = 24-hour treatment without metabolic activation, 84.0 μg/mL
[14] = 24-hour treatment without metabolic activation, 120 μg/mL

## CCCCCCCC/C=C\CCCCCCCCOP(O)(O)=S [Rx100.L-Lysine, (Z)—O-octadec-9-en-1-yl O,O-dihydrogen phosphorothioate]
[1]; [6]
  Cytotoxicity (% of Control): 77 % of Control
  Endoreduplicate Mean %: 0.0%
  Polyploidy Mean %: 0.0%
  Aberrant Cells Mean % −g: 0.0%
  Aberrant Cells Mean % +g: 1.5%
[1]; [7]
  Cytotoxicity (% of Control): 65 % of Control
  Endoreduplicate Mean %: 0.0%
  Polyploidy Mean %: 0.0%
  Aberrant Cells Mean % −g: 0.5%
  Aberrant Cells Mean % +g: 2.5%
[1]; [8]
  Cytotoxicity (% of Control): 68 % of Control
  Endoreduplicate Mean %: 0.0%
  Polyploidy Mean %: 0.0%
  Aberrant Cells Mean % −g: 0.5%
  Aberrant Cells Mean % +g: 3.0%
[1]; [9]
  Endoreduplicate Mean %: 0.0%
  Polyploidy Mean %: 0.5%
  Aberrant Cells Mean % −g: 0.5%
  Aberrant Cells Mean % +g: 1.0%
[1]; [10]
  Endoreduplicate Mean %: 0.0%
  Polyploidy Mean %: 1.5%
  Aberrant Cells Mean % −g: 3.0%
  Aberrant Cells Mean % +g: 6.0%
[1]; [11]
  Endoreduplicate Mean %: 0.0%
  Polyploidy Mean %: 3.0%
  Aberrant Cells Mean % −g: 6.0%
  Aberrant Cells Mean % +g: 8.5%
[1]; [12]
  Endoreduplicate Mean %: 0.0%
  Polyploidy Mean %: 0.0%
  Aberrant Cells Mean % −g: 0.5%
  Aberrant Cells Mean % +g: 3.0%
[1]; [13]
  Endoreduplicate Mean %: 0.0%
  Polyploidy Mean %: 0.0%
  Aberrant Cells Mean % −g: 2.0%
  Aberrant Cells Mean % +g: 5.5%
[1]; [14]
  Endoreduplicate Mean %: 0.0%
  Polyploidy Mean %: 1.0%
  Aberrant Cells Mean % −g: 0.5%
  Aberrant Cells Mean % +g: 4.5%
[1]; 3 hour treatment with S9 and 24 hour treatment without S9
  Genotoxic Effects: Genotoxic Effects: Negative for inducing chromosome aberrations, polyploidy and endoreduplication following a 3 hour treatment
[1]; 3 hours with or 24 hours without metabolic activation, listed as Rx100.Lysine
  chromosome aberrations, polyploidy and endoreduplication: No increase in structural or numerical aberrations, polyploidy or endoreduplication; also recorded: negative
[1]; 3 hours without metabolic activation, increase only at 316 μg/mL, listed as Rx100.Lysine
  cells with chromosome aberrations: small but statistically significant increase; also recorded: weakly positive
[1]; highest concentration tested, 3-hour exposure
  cytotoxicity: Cytotoxicity was observed
[1]; study summary, primary human lymphocytes
  Cytotoxic Effect: Cytotoxic Effect: None
[2]; listed as Rx100.L-Lysine salt
  Form by XRPD after short term slurry: no change in form
[2]; listed as Rx100 crystalline sesqui-L-lysine salt
  Form by XRPD after short term slurry: do not change in form
[3]; Acetone:water (1:1), 0.5 mL added
  Observation (qualitative solubility): dissolved
[3]; Acetone, 0.75 mL added
  Observation (qualitative solubility): slurry
[3]; EtOH:water (1:1), 0.75 mL added
  Observation (qualitative solubility): dissolved
[3]; EtOH:water (8:2), 0.75 mL added
  Observation (qualitative solubility): cloudy
[3]; EtOH, 0.75 mL added
  Observation (qualitative solubility): slurry
[3]; IPA-water (1:1)
  Qualitative solubility: soluble
[3]; IPA:water (1:1), 0.75 mL added
  Observation (qualitative solubility): dissolved
[3]; IPA:water (8:2), 0.75 mL added
  Observation (qualitative solubility): oil
[3]; IPA, 0.75 mL added
  Observation (qualitative solubility): slurry
[3]; MeOH:water (1:1), 0.5 mL added
  Observation (qualitative solubility): dissolved
[3]; MeOH:water (8:2), 0.75 mL added
  Observation (qualitative solubility): dissolved
[3]; MeOH, 0.75 mL added
  Observation (qualitative solubility): slurry
[3]; THF:water (1:1), 0.5 mL added
  Observation (qualitative solubility): oil
[3]; THF, 0.75 mL added
  Observation (qualitative solubility): slurry
[3]; acetone:water (1:1)
  Qualitative solubility: soluble
[3]; ethanol:water (1:1)
  Qualitative solubility: soluble
[3]; methanol:water (1:1)
  Qualitative solubility: soluble
[3]; methanol:water (8:2)
  Qualitative solubility: soluble
[4]
  Solubility in water: soluble in water
[4]; 3% polyethylene glycol 200, 1% ethanol, 10 mM monosodium phosphate, balance water
  Solubility in the simulated formulation solvent: soluble
[4]; listed as L-Lysine salt
  Solubility in water: soluble
[5]
  AUC at 27 day: 5040 ng·h/mL
Sprague Dawley rats; 28 days SC, 1.81, 6.33 and 18.1 (later 12.7) mg/kg/day
  mortality: All animals survived the treatment period except for one high dose female
Sprague Dawley rats; 28 days SC, dose relationship to incidence and severity
  injection site lesions: discoloration, scabbing, and swelling was observed in all treatment groups
Sprague Dawley rats; at >6.33 mg/kg
  clinical chemistry changes: mildly lower albumin concentration and A/G ratio, higher globulin concentration and moderately higher triglycerides
Sprague Dawley rats; both genders
  liver weights: dose related increased liver weights in the middle and high dose groups
Sprague Dawley rats; high dose
  body weight gains: reduced
Sprague Dawley rats; males
  NOAEL: could not be clearly established
  testicular weights: dose related decreased testicular weights in all groups of males
Sprague Dawley rats; middle and high dose levels
  hematology, red cell changes: lower red cell parameters and higher reticulocyte counts
Sprague Dawley rats; rat, in vivo
  coagulation studies: lower APPT in the females at the high dose and higher fibrinogen levels at all doses
  hematology, white cell parameters and platelets: increased leukocyte, neutrophil, eosinophil and basophil counts and increased platelets
  histopathology, injection sites: chronic mixed cell inflammation at all doses
  histopathology, liver: dose related increased hepatocyte vacuolation at all doses
  histopathology, testes: degeneration and necrosis of the seminiferous tubules in all animals at the middle and high dose and in one animal at the low dose
  ophthalmological examinations: unremarkable
  toxicokinetics, plasma concentrations: dose related increases in plasma concentrations
Sprague Dawley rats; some animals at 18.1/12.7 mg/kg
  liver enzymes: elevated liver enzymes
